Results as given in patent US20230416228A1 (Forkhead Biotherapeutics, Inc., priority 2020, published 2023).

Each molecule was assayed against T1, human FOXO1 (constitutively active form Thr24Ala, Ser256Ala, Ser319Ala) (Homo sapiens, UniProt Q12778, S256A/S319A/T24A) (assay: FOXO1 inhibitor activity assay: cell-based transcriptional (luciferase) reporter assay in HEK293 cells). Settings: HEK293 cells transfected with insulin response element firefly luciferase reporter, FOXO1 and Renilla luciferase; 10-point dose response 50 μM to 2.5 nM; 24 hours.
T1 construct: expressed in transfected cells; host or cells: HEK293 cells transfected with pcDNA3.1 plasmid
Method in brief: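 IC50 and maximal inhibition were fitted by 4-parameter logistic regression on normalized firefly/Renilla luciferase ratios. The 0% reference used RFP in place of FOXO1, and the 100% reference was DMSO-only with all plasmids.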

T1 sequence (Q12778 whole entry T24A/S256A/S319A): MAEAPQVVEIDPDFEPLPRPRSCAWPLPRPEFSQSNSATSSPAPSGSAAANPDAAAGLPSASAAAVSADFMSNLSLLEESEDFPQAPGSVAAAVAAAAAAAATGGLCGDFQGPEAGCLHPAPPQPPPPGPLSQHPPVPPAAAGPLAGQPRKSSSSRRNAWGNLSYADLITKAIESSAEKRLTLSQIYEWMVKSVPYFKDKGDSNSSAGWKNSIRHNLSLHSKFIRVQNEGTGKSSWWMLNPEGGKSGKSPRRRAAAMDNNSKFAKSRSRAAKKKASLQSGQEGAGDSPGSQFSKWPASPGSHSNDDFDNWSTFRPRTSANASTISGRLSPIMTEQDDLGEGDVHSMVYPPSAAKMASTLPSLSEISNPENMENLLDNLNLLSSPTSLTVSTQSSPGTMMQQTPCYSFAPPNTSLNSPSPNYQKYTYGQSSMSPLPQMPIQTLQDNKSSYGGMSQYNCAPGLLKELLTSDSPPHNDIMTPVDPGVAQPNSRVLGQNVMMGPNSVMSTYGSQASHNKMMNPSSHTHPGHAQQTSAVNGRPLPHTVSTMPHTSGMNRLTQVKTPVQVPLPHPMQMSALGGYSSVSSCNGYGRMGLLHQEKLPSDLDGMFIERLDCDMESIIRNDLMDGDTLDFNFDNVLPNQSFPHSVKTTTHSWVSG

| Compound | IC50 [nM] |
| --- | --- |
| [2H]C([2H])([2H])OCCN1CCN(c2ccc(C(=O)Nc3cc(-c4nc5ccccc5[nH]4)n(C)n3)cn2)CC1 [Compound A-260, N-[5-(1H-benzimidazol-2-yl)-1-methyl-pyrazol-3-yl]-6-[4-[2-(trideuterio-methoxy)ethyl]piperazin-1-yl]pyridine-3-carboxamide] | 100 to 300 |
| CN1CCN(c2ncc(C(=O)Nc3cc(-c4nc5ccccc5[nH]4)[nH]n3)cn2)CC1 [Compound A-180, N-[5-(1H-benzimidazol-2-yl)-1H-pyrazol-3-yl]-2-(4-methylpiperazin-1-yl)pyrimidine-5-carboxamide] | 100 to 300 |
| Cn1nc(NC(=O)c2ccc(N3CCC(N4CCOCC4)CC3)nc2)cc1-c1nc2cc(F)ccc2[nH]1 [Compound A-168, N-[5-(5-fluoro-1H-benzimidazol-2-yl)-1-methyl-pyrazol-3-yl]-6-(4-morpholino-1-piperidyl)pyridine-3-carboxamide] | 100 to 300 |
| O=C(Nc1cc(-c2nc3ccccc3[nH]2)[nH]n1)c1ccc(N2CCC(O)CC2)cc1 [Compound A-36, N-[5-(1H-benzimidazol-2-yl)-1H-pyrazol-3-yl]-4-(4-hydroxy-1-piperidyl)-benzamide] | < 100 |
| Cn1nc(NC(=O)c2ccc(N3CCNCC3)cc2)cc1-c1nc2ccccc2[nH]1 [Compound A-217, N-[5-(1H-benzimidazol-2-yl)-1-methyl-pyrazol-3-yl]-4-piperazin-1-yl-benzamide] | 100 to 300 |
| CC(C)(O)C1CCN(c2ccc(C(=O)Nc3cc(-c4nc5ccccc5[nH]4)[nH]n3)cn2)CC1 [Compound A-47, N-[5-(1H-benzimidazol-2-yl)-1H-pyrazol-3-yl]-6-[4-(1-hydroxy-1-methyl-ethyl)-1-piperidyl]pyridine-3-carboxamide] | < 100 |
| O=C(Nc1cc(-c2nc3cc(OC(F)(F)F)ccc3[nH]2)[nH]n1)c1ccc(N2CCOCC2)nc1 [Compound A-107, 6-morpholino-N-[5-[5-(trifluoromethoxy)-1H-benzimidazol-2-yl]-1H-pyrazol-3-yl]pyridine-3-carboxamide] | > 1000 |
| COc1cc(F)c2[nH]c(-c3cc(NC(=O)c4ccc(N5CCN(C)CC5)nc4)nn3C)nc2c1 [Compound A-191, N-[5-(7-fluoro-5-methoxy-1H-benzimidazol-2-yl)-1-methyl-pyrazol-3-yl]-6-(4-methylpiperazin-1-yl)pyridine-3-carboxamide] | 100 to 300 |
| C[C@@H]1CN(c2ccc(C(=O)Nc3cc(-c4nc5ccccc5[nH]4)n(C)n3)cn2)C[C@H](C)N1CCO [Compound A-278, N-[5-(1H-benzimidazol-2-yl)-1-methyl-pyrazol-3-yl]-6-[(3R,5S)-4-(2-hydroxyethyl)-3,5-dimethyl-piperazin-1-yl]pyridine-3-carboxamide] | 100 to 300 |
| Cn1nc(NC(=O)c2ccc(N3CC(CO)C3)nc2)cc1-c1nc2ccccc2[nH]1 [Compound A-270, N-[5-(1H-benzimidazol-2-yl)-1-methyl-pyrazol-3-yl]-6-[3-(hydroxymethyl)azetidin-1-yl]pyridine-3-carboxamide] | 300 to 1000 |
| Cn1nc(NC(=O)c2cnc(N3CCC(N4CCOCC4)CC3)nc2)cc1-c1nc2ccccc2[nH]1 [Compound A-206, N-[5-(1H-benzimidazol-2-yl)-1-methyl-pyrazol-3-yl]-2-(4-morpholino-1-piperidyl)pyrimidine-5-carboxamide] | > 1000 |
| Cn1nc(NC(=O)c2ccc(N3CCN4CCCC4C3)nc2)cc1-c1nc2ccccc2[nH]1 (stereo not drawn) [Compound A-279] | < 100 |
| Cn1nc(NC(=O)c2ccc(N3CCN(CC(C)(C)O)CC3)cc2)cc1-c1nc2ccccc2[nH]1 [Compound A-259, N-[5-(1H-benzimidazol-2-yl)-1-methyl-pyrazol-3-yl]-4-[4-(2-hydroxy-2-methyl-propyl)piperazin-1-yl]benzamide] | < 100 |
| O=C(NCc1ccccc1)Nc1cc(-c2nc3ccccc3[nH]2)[nH]n1 [Compound A-138, 1-[5-(1H-benzimidazol-2-yl)-1H-pyrazol-3-yl]-3-benzyl-urea] | > 1000 |
| Cc1nc(N2CCOCC2)ccc1C(=O)Nc1cc(-c2nc3ccccc3[nH]2)n(C)n1 [Compound A-236] | 100 to 300 |
| CN1CCN(c2ccc(C(=O)Nc3cc(-c4nc5ccccc5[nH]4)[nH]n3)nc2)CC1 [Compound A-184, N-[5-(1H-benzimidazol-2-yl)-1H-pyrazol-3-yl]-5-(4-methylpiperazin-1-yl)pyridine-2-carboxamide] | > 1000 |

Other lines, results leading:

| IC50 [nM] | Compound |
| --- | --- |
| < 100 | COc1ccc2[nH]c(-c3cc(NC(=O)c4ccc(N5CCC(CO)CC5)nc4)n[nH]3)nc2c1 [Compound A-109, 6-[4-(hydroxymethyl)-1-piperidyl]-N-[5-(5-methoxy-1H-benzimidazol-2-yl)-1H-pyrazol-3-yl]pyridine-3-carboxamide] |
| < 100 | COCCSc1ccc(C(=O)Nc2cc(-c3nc4ccccc4[nH]3)[nH]n2)cc1Cl [Compound A-93, N-[5-(1H-benzimidazol-2-yl)-1H-pyrazol-3-yl]-3-chloro-4-(2-methoxyethylsulfanyl)benzamide] |
| > 1000 | O=C(O)COc1ccc(C(=O)Nc2cc(-c3nc4ccccc4[nH]3)[nH]n2)cc1Cl [Compound A-72, 2-[4-[[5-(1H-benzimidazol-2-yl)-1H-pyrazol-3-yl]carbamoyl]-2-chloro-phenoxy]acetic acid] |
| > 1000 | O=C(Nc1cc(-c2nc3cc(Cl)ccc3[nH]2)[nH]n1)c1ccc(N2CCC(O)CC2)nc1 [Compound A-87, N-[5-(5-chloro-1H-benzimidazol-2-yl)-1H-pyrazol-3-yl]-6-(4-hydroxy-1-piperidyl)pyridine-3-carboxamide] |
| < 100 | Cn1nc(NC(=O)c2ccc(OCCO)c(Cl)c2)cc1-c1nc2cc(F)ccc2[nH]1 [Compound A-167, 3-chloro-N-[5-(5-fluoro-1H-benzimidazol-2-yl)-1-methyl-pyrazol-3-yl]-4-(2-hydroxyethoxy)benzamide] |
| 100 to 300 | O=C(Nc1cc(-c2nc3ccccc3[nH]2)[nH]n1)c1ccc(N2CCC[C@H]2CO)nc1 [Compound A-52, N-[5-(1H-benzimidazol-2-yl)-1H-pyrazol-3-yl]-6-[(2S)-2-(hydroxymethyl)-pyrrolidin-1-yl]pyridine-3-carboxamide] |
| > 1000 | COc1ccc(C(=O)Nc2cc(C(=O)NC3COC3)[nH]n2)cc1Cl [Compound A-16, 3-[(3-chloro-4-methoxy-benzoyl)amino]-N-(oxetan-3-yl)-1H-pyrazole-5-carboxamide] |
| 300 to 1000 | COC1CN(c2ccc(C(=O)Nc3cc(-c4nc5cc(F)ccc5[nH]4)n(C)n3)cn2)C1 [Compound A-128, N-[5-(5-fluoro-1H-benzimidazol-2-yl)-1-methyl-pyrazol-3-yl]-6-(3-methoxyazetidin-1-yl)pyridine-3-carboxamide] |
| < 100 | COc1ccc(C(=O)Nc2cc(-c3nc4ccccc4[nH]3)[nH]n2)cc1F [Compound A-124, N-[5-(1H-benzimidazol-2-yl)-1H-pyrazol-3-yl]-3-fluoro-4-methoxy-benzamide] |
| > 1000 | COc1ccc(C(=O)Nc2n[nH]c(-c3nc4ccccc4[nH]3)c2Cl)cc1Cl [Compound A-74, N-[5-(1H-benzimidazol-2-yl)-4-chloro-1H-pyrazol-3-yl]-3-chloro-4-methoxy-benzamide] |
| 300 to 1000 | COc1ccc(C(=O)Nc2cc(-c3cn4ccc(C)cc4n3)[nH]n2)cc1Cl [Compound A-163, 3-chloro-4-methoxy-N-[5-(7-methylimidazo[1,2-a]pyridin-2-yl)-1H-pyrazol-3-yl]benzamide] |
